Measured values taken from the supplement of paper PMC11962398.

Key:
BI-2493 [1] = compound: T1, C[C@H]1CNCCN1c1nccc(-c2noc3c2CCC[C@@]32CCCc3sc(N)c(C#N)c32)n1 [BI-2493]; settings: 5 days
Description: (§1)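 PRISM pooled barcoded cancer cell line viability screen (Broad Institute) with BI-2493 at 8 doses in threefold dilutions from 0.00457 to 10 µmol/L, 5-day treatment; curves fitted per cell line. IC50 is undefined (placeholder) for resistant lines. AUC is capped at 1, and sensitivity is reported as 1 − AUC.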

BI-2493 [2] = compound: T1, BI-2493; assay: 1 - AUC of viability dose-response curve (sensitivity) (fraction); higher = more sensitive; settings: 5 days
Description: as §1

Test System	IC50 of cell viability (BI-2493 [1])	1 - AUC of viability dose-response curve (BI-2493 [2])
SKLMS1_SOFT_TISSUE	9.65 µM	0.0071
SKLU1_LUNG	1 µM	0.329
SKM1_HAEMATOPOIETIC_AND_LYMPHOID_TISSUE	0.316 µM	0.446
SKMEL2_SKIN	9.59 µM	0.0065
SKMEL5_SKIN	7.01 µM	0.0596
SKMEL24_SKIN	9.18 µM	0.157
SKMEL28_SKIN	4.05 µM	0.217
SKMEL30_SKIN	9.15 µM	0.0152
SKMES1_LUNG	8.98 µM	0.0245
SKNAS_AUTONOMIC_GANGLIA	4.32 µM	0.086
SKNBE2_AUTONOMIC_GANGLIA	4.48 µM	0.206
SKNDZ_AUTONOMIC_GANGLIA	9.28 µM	0.012
SKNFI_AUTONOMIC_GANGLIA	5.39 µM	0.112
SKNMC_BONE	7.83 µM	0.193
SKNSH_AUTONOMIC_GANGLIA	> 10 µM	0.25
SKN_ENDOMETRIUM	6.7 µM	0.101
SKOV3_OVARY	7.06 µM	0.0812
SKPNDW_BONE	9.05 µM	0.0174
SKUT1_SOFT_TISSUE	4.83 µM	0.207
SMSCTR_SOFT_TISSUE	> 10 µM	0.0341
SNGM_ENDOMETRIUM	7.12 µM	0.0648
SNU1_STOMACH	5.53 µM	0.102
SNU46_UPPER_AERODIGESTIVE_TRACT	5.4 µM	0.192
SNU61_LARGE_INTESTINE	0.465 µM	0.307
SNU81_LARGE_INTESTINE	9.39 µM	0.129

Test System	IC50 of cell viability (BI-2493 [1])	1 - AUC of viability dose-response curve (BI-2493 [2])
SNU119_OVARY	5.65 µM	0.162
SNU182_LIVER	> 10 µM	0.0527
SNU201_CENTRAL_NERVOUS_SYSTEM	> 10 µM	0.0868
SNU213_PANCREAS	5.63 µM	0.106
SNU216_STOMACH	8.63 µM	0.0735
SNU245_BILIARY_TRACT	0.731 µM	0.381
SNU308_BILIARY_TRACT	8.63 µM	0.0812
SNU398_LIVER	3.55 µM	0.176
SNU407_LARGE_INTESTINE	1.21 µM	0.3
SNU410_PANCREAS	9.47 µM	0.0692
SNU423_LIVER	3.81 µM	0.152
SNU449_LIVER	7.3 µM	0.0578
SNU466_CENTRAL_NERVOUS_SYSTEM	2.75 µM	0.218
SNU489_CENTRAL_NERVOUS_SYSTEM	4.14 µM	0.103
SNU638_STOMACH	8.32 µM	0.119
SNU668_STOMACH	6.46 µM	0.234
SNU685_ENDOMETRIUM	9.5 µM	0.0102
SNU719_STOMACH	9.46 µM	0.00913
SNU761_LIVER	2.4 µM	0.297
SNU840_OVARY	7.7 µM	0.0623
SNU869_BILIARY_TRACT	2.14 µM	0.279
SNU886_LIVER	5.03 µM	0.211
SNU899_UPPER_AERODIGESTIVE_TRACT	4.32 µM	0.157
SNU1041_UPPER_AERODIGESTIVE_TRACT	9.15 µM	0.019
SNU1066_UPPER_AERODIGESTIVE_TRACT	6.03 µM	0.0923

Test System	IC50 of cell viability (BI-2493 [1])	1 - AUC of viability dose-response curve (BI-2493 [2])
SNU1076_UPPER_AERODIGESTIVE_TRACT	3.84 µM	0.104
SNU1077_ENDOMETRIUM	8.81 µM	0.0934
SNU1105_CENTRAL_NERVOUS_SYSTEM	4.12 µM	0.157
SNU1196_BILIARY_TRACT	0.361 µM	0.496
SNU1214_UPPER_AERODIGESTIVE_TRACT	0.175 µM	0.482
SNU1544_LARGE_INTESTINE	2.68 µM	0.203
SNU2372_BREAST	6.37 µM	0.0682
SNUC2A_LARGE_INTESTINE	> 10 µM	0.0882
SNUC4_LARGE_INTESTINE	5.72 µM	0.162
SQ1_LUNG	3.68 µM	0.153
SR786_HAEMATOPOIETIC_AND_LYMPHOID_TISSUE	7.44 µM	0.0498
SSP25_BILIARY_TRACT	8.5 µM	0.11
STM9101_SOFT_TISSUE	> 10 µM	0.0387
SUDHL1_HAEMATOPOIETIC_AND_LYMPHOID_TISSUE	4.67 µM	0.14
SUDHL8_HAEMATOPOIETIC_AND_LYMPHOID_TISSUE	9.1 µM	0.0165
SUIT2_PANCREAS	4.96 µM	0.123
SUM149PT_BREAST	3.94 µM	0.168
SUM159PT_BREAST	7.31 µM	0.064
SUPB15_HAEMATOPOIETIC_AND_LYMPHOID_TISSUE	3.13 µM	0.149
SUPT11_HAEMATOPOIETIC_AND_LYMPHOID_TISSUE	5.2 µM	0.0681
SUSA_TESTIS	1.09 µM	0.243
SW13_ADRENAL_CORTEX	4.77 µM	0.0973
SW156_KIDNEY	9.51 µM	0.0358
SW579_THYROID	3.16 µM	0.133
SW620_LARGE_INTESTINE	1.1 µM	0.313
